According to article PMC3663124, “S-Adenosyl-S-carboxymethyl-L-homocysteine: a novel cofactor found in the putative tRNA-modifying enzyme CmoA” (Acta Crystallographica Section D: Biological Crystallography, 2013):

Target: T1, CmoA (Escherichia coli, UniProt P76290)
T1 construct: R100H versus P76290 (PCR mutation or strain difference); expressed in E. coli Rosetta pLysS (DE3); dimer; residues 19-247 (chain A) and 20-244 (chain B) modelled
Assay: X-ray crystal structure ([…] A); FT-MS of released ligand
Format: binding
Conditions: copurified from E. coli expression host; carboxymethyl carboxylate salt bridge to Arg199; putative active site

T1 sequence (P76290 whole entry R100H, the tested form may be a part): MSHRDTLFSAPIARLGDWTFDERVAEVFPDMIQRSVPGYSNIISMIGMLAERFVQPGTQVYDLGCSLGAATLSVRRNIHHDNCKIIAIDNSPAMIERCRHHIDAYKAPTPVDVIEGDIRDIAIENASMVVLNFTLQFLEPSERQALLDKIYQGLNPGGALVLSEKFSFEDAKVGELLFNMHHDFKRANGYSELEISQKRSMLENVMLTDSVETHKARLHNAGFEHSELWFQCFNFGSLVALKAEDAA

Nc1ncnc2c1ncn2[C@@H]1O[C@H](C[S+](CC[C@H](N)C(=O)O)CC(=O)O)[C@@H](O)[C@H]1O (stereo partly drawn) [[(3S)-3-amino-3-carboxypropyl]{[(2S,3S,4R,5R)-5-(6-aminopurin-9-yl)-3,4-dihydroxyoxolan-2-yl]methyl}(carboxymethyl)sulfanium]
X-ray crystal structure (1.73 A); FT-MS of released ligand: both molecules of CmoA contain the novel derivative S-adenosyl-S-carboxymethyl-L-homocysteine (SCM-SAH)
